{"source": "patent US20030144234A1", "about": "“Methods for the treatment of chronic pain and compositions therefor” (priority 2001, published 2003)", "key": {"[1]": {"tested_on": "Seltzer model of chronic neuropathic pain", "experiment": "Established mechanical hyperalgesia in the Seltzer model of chronic neuropathic pain, single oral dose", "format": "in vivo, Wistar rats", "design": "effect on established mechanical hyperalgesia: unit not given here"}, "cathepsin S [2]": {"target": "T1, cathepsin S (Homo sapiens, UniProt P25774)", "T1 sequence (P25774 115-331)": "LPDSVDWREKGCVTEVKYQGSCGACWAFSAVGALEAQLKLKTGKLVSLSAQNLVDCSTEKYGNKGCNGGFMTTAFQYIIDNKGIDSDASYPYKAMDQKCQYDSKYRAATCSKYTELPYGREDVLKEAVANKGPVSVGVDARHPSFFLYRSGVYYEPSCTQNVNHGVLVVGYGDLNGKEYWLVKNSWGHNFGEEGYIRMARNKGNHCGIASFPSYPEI", "experiment": "Cathepsin S inhibitory activity (stated in words)", "format": "biochemical"}, "cathepsin K": {"target": "T2, cathepsin K (Homo sapiens, UniProt P43235)", "T2 sequence (P43235 115-329)": "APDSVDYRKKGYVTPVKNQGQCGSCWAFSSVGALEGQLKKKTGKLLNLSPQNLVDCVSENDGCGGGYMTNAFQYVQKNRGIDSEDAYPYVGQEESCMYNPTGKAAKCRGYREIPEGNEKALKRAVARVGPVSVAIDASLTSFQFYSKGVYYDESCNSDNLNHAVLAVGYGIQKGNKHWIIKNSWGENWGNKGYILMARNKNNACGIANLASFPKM", "experiment": "Cathepsin K inhibitory activity (stated in words)", "format": "biochemical"}, "[3]": {"tested_on": "CCI model of chronic neuropathic pain", "experiment": "Established mechanical hyperalgesia in the CCI model of chronic neuropathic pain, single oral dose (paw withdrawal threshold)", "format": "in vivo, Wistar rats", "conditions": "for % Reversal of Predose Hyperalgesia: CCI model day 14", "source_text": "In the Chronic Constriction Injury (CCl) model (Bennett, G. J. and Xie, Y. K. Pain (1988) 33: 87-107) rats are anaesthetised and a small incision is made mid-way up one thigh (usually the left) to expose the sciatic nerve. The nerve is cleared of surrounding connective tissue and four ligatures of 4/0 chromic gut are tied loosely around the nerve with approximately 1 mm between each, so that the ligatures just barely constrict the surface of the nerve. The wound is closed with sutures and clips as described above. In sham animals the sciatic nerve is exposed but not ligated and the wound closed as in nonsham animals. In all chronic pain models (inflammatory and neuropathic) mechanical hyperalgesia is assessed by measuring paw withdrawal thresholds of both hindpaws to an increasing pressure stimulus using an Analgesymeter (Ugo-Basile, Milan). Mechanical allodynia is assessed by measuring withdrawal thresholds to non-noxious mechanical stimuli applied with von Frey hairs to the plantar surface of both hindpaws. Thermal hyperalgesia is assessed by measuring withdrawal latencies to a noxious thermal stimulus applied to the underside of each hindpaw. With all models, mechanical hyperalgesia and allodynia and thermal hyperalgesia develop within 1-3 days following surgery and persist for at least 50 days. For the assays described herein, drugs may be applied before and after surgery to assess their effect on the development of hyperalgesia, particularly approximately 14 days following surgery, to determine their ability to reverse established hyperalgesia. The percentage reversal of hyperalgesia is calculated as follows: [formula] In the experiments disclosed herein, Wistar rats (male) are employed in the pain models described above. Rats weigh approximately 120-140 grams at the time of surgery. All surgery is performed under enflurane/O2 inhalation anaesthesia. In all cases the wound is closed after the procedure and the animal allowed to recover. In all pain models employed, after a few days in all but the sham operated animals, a marked mechanical and thermal hyperalgesia and allodynia develops in which there is a lowering of pain threshold and an enhanced reflex withdrawal response of the hind-paw to touch, pressure or thermal stimuli. […] In the majority of animals the toes of the affected hind paw are held together and the foot turned slightly to one side; in some rats the toes are also curled under. The gait of the ligated rats varies, but limping is uncommon. […] The rats tend to be very sensitive to touch and may vocalise. Otherwise the general health an condition of the rats is good. Rats are subjected to the surgical procedures according to the CCl chronic pain model described above. Paw withdrawal thresholds are measured prior to surgery, 14 days later when hyperalgesia is established and then at 1, 3 and 6 hours following a single oral gavage dose of compound B. Results are provided in Table 2, below. Each time point represents data from 6 animals per group. Vehicle control: PEG/methyl cellulose (0.5%)+Tween 80 (0.25%)(20:80), 1 ml p.o."}, "[4]": {"tested_on": "CCI model of chronic neuropathic pain", "experiment": "Mechanical hyperalgesia in the CCI model, twice daily oral dosing throughout development of hyperalgesia", "format": "in vivo, Wistar rats", "source_text": "In the Chronic Constriction Injury (CCl) model (Bennett, G. J. and Xie, Y. K. Pain (1988) 33: 87-107) rats are anaesthetised and a small incision is made mid-way up one thigh (usually the left) to expose the sciatic nerve. The nerve is cleared of surrounding connective tissue and four ligatures of 4/0 chromic gut are tied loosely around the nerve with approximately 1 mm between each, so that the ligatures just barely constrict the surface of the nerve. The wound is closed with sutures and clips as described above. In sham animals the sciatic nerve is exposed but not ligated and the wound closed as in nonsham animals. In all chronic pain models (inflammatory and neuropathic) mechanical hyperalgesia is assessed by measuring paw withdrawal thresholds of both hindpaws to an increasing pressure stimulus using an Analgesymeter (Ugo-Basile, Milan). Mechanical allodynia is assessed by measuring withdrawal thresholds to non-noxious mechanical stimuli applied with von Frey hairs to the plantar surface of both hindpaws. Thermal hyperalgesia is assessed by measuring withdrawal latencies to a noxious thermal stimulus applied to the underside of each hindpaw. With all models, mechanical hyperalgesia and allodynia and thermal hyperalgesia develop within 1-3 days following surgery and persist for at least 50 days. For the assays described herein, drugs may be applied before and after surgery to assess their effect on the development of hyperalgesia, particularly approximately 14 days following surgery, to determine their ability to reverse established hyperalgesia. In the experiments disclosed herein, Wistar rats (male) are employed in the pain models described above. Rats weigh approximately 120-140 grams at the time of surgery. All surgery is performed under enflurane/O2 inhalation anaesthesia. In all cases the wound is closed after the procedure and the animal allowed to recover. In all pain models employed, after a few days in all but the sham operated animals, a marked mechanical and thermal hyperalgesia and allodynia develops in which there is a lowering of pain threshold and an enhanced reflex withdrawal response of the hind-paw to touch, pressure or thermal stimuli. […] In the majority of animals the toes of the affected hind paw are held together and the foot turned slightly to one side; in some rats the toes are also curled under. The gait of the ligated rats varies, but limping is uncommon. […] The rats tend to be very sensitive to touch and may vocalise. Otherwise the general health an condition of the rats is good. Data disclosed herein indicate that compound B can reverse the mechanical hyperalgesia induced in the CCl model of neuropathic pain in a dose dependent manner with a D50 in the range 30-100 mg/kg, with up to 70% reversal at 100 mg/kg at 1 hour post dosing. […] In the twice daily study, paw withdrawal thresholds were measured prior to surgery and then daily 3 hours following the second oral dosing with compound B. The last dose was given on day 13. Each time point in Table 3 represents data from 6 animals per group. Vehicle control: PEG/methyl cellulose (0.5%)+Tween 80 (0.25%)(20:80), 1 ml p.o."}, "[5]": {"tested_on": "FCA-induced model of chronic inflammatory pain", "experiment": "Mechanical hyperalgesia in the FCA-induced model of chronic inflammatory pain", "format": "in vivo, rats", "conditions": "100 mg/kg p.o., 24 hours after FCA induction, data not shown", "procedure": "The Complete Freund's Adjuvant-induced mechanical hyperalgesia may be used as a model of chronic inflammatory pain (Stein, C. et al. Pharmacol. Biochem. Behav. (1988) 31:445-451). In this model, typically a male Sprague-Dawley orWistar rat (200-250 g) receives an intraplantar injection of 25 μl complete Freund's adjuvant into one hind paw. A marked inflammation occurs in this hind paw. Drugs are generally administered for evaluation of efficacy, 24 hours after the inflammatory insult, when mechanical hyperalgesia is considered fully established. In all chronic pain models (inflammatory and neuropathic) mechanical hyperalgesia is assessed by measuring paw withdrawal thresholds of both hindpaws to an increasing pressure stimulus using an Analgesymeter (Ugo-Basile, Milan). Mechanical allodynia is assessed by measuring withdrawal thresholds to non-noxious mechanical stimuli applied with von Frey hairs to the plantar surface of both hindpaws. Thermal hyperalgesia is assessed by measuring withdrawal latencies to a noxious thermal stimulus applied to the underside of each hindpaw. With all models, mechanical hyperalgesia and allodynia and thermal hyperalgesia develop within 1-3 days following surgery and persist for at least 50 days. […] The percentage reversal of hyperalgesia is calculated as follows: [formula] […]"}, "cathepsin S [6]": {"target": "T1, cathepsin S", "conditions": "per U.S. Pat. No. 4,518,528; cited from earlier work"}}, "note": "Starred links: 1 amine or outer side, 2 acyl side, 3 side chain; linkers in the order of their positions; H or OH if unused. Non-standard residues stand in square brackets, D forms with d. Residues, ends and D or L forms follow the SMILES beside them. *: point of attachment. hPhe = N[C@@H](CCc1ccccc1)C(=O)O; Morpholide = C1CN(*)CCO1; CO = O=C([*:1])[*:2]; CH2F = FC*", "data": [{"smiles": "CC(C)(C)Cn1c(Cc2cccs2)cc2cnc(C#N)nc21", "note": "[Compound A, 7-(2,2-Dimethyl-propyl)-6-thiophen-2-ylmethyl-7.H.-pyrrolo[2,3-.d.]pyrimidine-2-carbonitrile]", "values": [{"measurement": "effect on established mechanical hyperalgesia", "setting": "[1]; Cmpd A 3 mg/kg single oral dose, 1 hr", "value": 1.32}, {"measurement": "effect on established mechanical hyperalgesia", "setting": "[1]; Cmpd A 3 mg/kg single oral dose, 3 hrs", "value": 3.64}, {"measurement": "effect on established mechanical hyperalgesia", "setting": "[1]; Cmpd A 3 mg/kg single oral dose, 6 hrs", "value": "−1.06"}, {"measurement": "effect on established mechanical hyperalgesia", "setting": "[1]; Cmpd A 10 mg/kg single oral dose, 1 hr", "value": 8.63}, {"measurement": "effect on established mechanical hyperalgesia", "setting": "[1]; Cmpd A 10 mg/kg single oral dose, 3 hrs", "value": 52.94}, {"measurement": "effect on established mechanical hyperalgesia", "setting": "[1]; Cmpd A 10 mg/kg single oral dose, 6 hrs", "value": 17.63}, {"measurement": "effect on established mechanical hyperalgesia", "setting": "[1]; Cmpd A 30 mg/kg single oral dose, 1 hr", "value": 31.15}, {"measurement": "effect on established mechanical hyperalgesia", "setting": "[1]; Cmpd A 30 mg/kg single oral dose, 3 hrs", "value": 68.32}, {"measurement": "effect on established mechanical hyperalgesia", "setting": "[1]; Cmpd A 30 mg/kg single oral dose, 6 hrs", "value": 23.05}, {"measurement": "D50 for reversal of hyperalgesia", "setting": "[1]; Seltzer model, single oral dose", "value": "3 to 10", "unit": "mg/kg"}, {"measurement": "cathepsin S inhibitory activity (in words)", "setting": "cathepsin S [2]", "value": "mixed cathepsin S/K inhibitory activity"}, {"measurement": "cathepsin K inhibitory activity (in words)", "setting": "cathepsin K", "value": "mixed cathepsin S/K inhibitory activity"}]}, {"smiles": "O=C(CF)[C@H](CCc1ccccc1)NC(=O)[C@H](Cc1ccccc1)NC(=O)N1CCOCC1", "note": "[Compound B, 3-[(4-morpholinylcarbonyl)-phenylalanylamido]-1-fluoro-5-phenyl-2-pentanone] ({Morpholide-CO}-Phe-[hPhe]-CH2F)", "values": [{"measurement": "% Reversal of Predose Hyperalgesia", "setting": "[3]; 10 mg/kg single oral dose, 1 hr post dose", "value": 26.16, "unit": "%"}, {"measurement": "% Reversal of Predose Hyperalgesia", "setting": "[3]; 10 mg/kg single oral dose, 3 hrs post dose", "value": 38.19, "unit": "%"}, {"measurement": "% Reversal of Predose Hyperalgesia", "setting": "[3]; 10 mg/kg single oral dose, 6 hrs post dose", "value": 18.29, "unit": "%"}, {"measurement": "% Reversal of Predose Hyperalgesia", "setting": "[3]; 30 mg/kg single oral dose, 1 hr post dose", "value": 40.97, "unit": "%"}, {"measurement": "% Reversal of Predose Hyperalgesia", "setting": "[3]; 30 mg/kg single oral dose, 3 hrs post dose", "value": 38.89, "unit": "%"}, {"measurement": "% Reversal of Predose Hyperalgesia", "setting": "[3]; 30 mg/kg single oral dose, 6 hrs post dose", "value": 13.89, "unit": "%"}, {"measurement": "% Reversal of Predose Hyperalgesia", "setting": "[3]; 100 mg/kg single oral dose, 1 hr post dose", "value": 76.49, "unit": "%"}, {"measurement": "% Reversal of Predose Hyperalgesia", "setting": "[3]; 100 mg/kg single oral dose, 3 hrs post dose", "value": 55.06, "unit": "%"}, {"measurement": "% Reversal of Predose Hyperalgesia", "setting": "[3]; 100 mg/kg single oral dose, 6 hrs post dose", "value": 29.76, "unit": "%"}, {"measurement": "reversal of mechanical hyperalgesia", "setting": "[3]; CCI model, 100 mg/kg, 1 hour post dosing", "value": "up to 70%"}, {"measurement": "D50 for reversal of mechanical hyperalgesia", "setting": "[3]; CCI model, single oral dose", "value": "30 to 100", "unit": "mg/kg"}, {"measurement": "Mean Paw pressure withdrawal threshold", "setting": "[4]; 30 mg/kg orally twice daily, day 1 post surgery, 3 hours after second dose", "value": 100.00, "unit": "g"}, {"measurement": "Mean Paw pressure withdrawal threshold", "setting": "[4]; 30 mg/kg orally twice daily, day 2 post surgery, 3 hours after second dose", "value": 70.83, "unit": "g"}, {"measurement": "Mean Paw pressure withdrawal threshold", "setting": "[4]; 30 mg/kg orally twice daily, day 3 post surgery, 3 hours after second dose", "value": 79.17, "unit": "g"}, {"measurement": "Mean Paw pressure withdrawal threshold", "setting": "[4]; 30 mg/kg orally twice daily, day 4 post surgery, 3 hours after second dose", "value": 80.00, "unit": "g"}, {"measurement": "Mean Paw pressure withdrawal threshold", "setting": "[4]; 30 mg/kg orally twice daily, day 6 post surgery, 3 hours after second dose", "value": 80.80, "unit": "g"}, {"measurement": "Mean Paw pressure withdrawal threshold", "setting": "[4]; 30 mg/kg orally twice daily, day 8 post surgery, 3 hours after second dose", "value": 80.00, "unit": "g"}, {"measurement": "Mean Paw pressure withdrawal threshold", "setting": "[4]; 30 mg/kg orally twice daily, day 10 post surgery, 3 hours after second dose", "value": 77.50, "unit": "g"}, {"measurement": "Mean Paw pressure withdrawal threshold", "setting": "[4]; 30 mg/kg orally twice daily, day 13 post surgery (last dose), 3 hours after second dose", "value": 79.17, "unit": "g"}, {"measurement": "reversing mechanical hyperalgesia (in words)", "setting": "[4]; CCI model, 30 mg/kg orally, twice daily throughout development of hyperalgesia", "value": "acutely effective"}, {"measurement": "Mean Paw pressure withdrawal threshold", "setting": "[4]; day 15 post surgery, after end of 30 mg/kg twice daily treatment (last dose day 13)", "value": 60.83, "unit": "g"}, {"measurement": "effect on established mechanical hyperalgesia", "setting": "[1]; Cmpd B 30 mg/kg single oral dose, 1 hr", "value": 33.47}, {"measurement": "effect on established mechanical hyperalgesia", "setting": "[1]; Cmpd B 30 mg/kg single oral dose, 3 hrs", "value": 41.57}, {"measurement": "effect on established mechanical hyperalgesia", "setting": "[1]; Cmpd B 30 mg/kg single oral dose, 6 hrs", "value": 11.97}, {"measurement": "maximal reversal of mechanical hyperalgesia", "setting": "[5]", "value": 46, "unit": "%"}, {"measurement": "inhibition of cathepsin S in vitro (in words)", "setting": "cathepsin S [6]", "value": "known to inhibit"}]}]}
